# Measured values as given in PubChem BioAssay (NCI).
# Values joined by “and” are separate entries in the source; they are usually repeats but may differ in a detail not shown here. Equal values may be shown once.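 Growth conditions: 96-well plates. Treatment: test compound, 48 hours, 5 concentrations. Analysis: linear interpolation between bracketing concentrations; unreached endpoints set to highest concentration. GI50 = concentration required for 50% inhibition of growth. TGI marks complete inhibition of growth.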
# Key:
# Test in all cases: DTP human tumour cell line panel, 48 h
# 786-0 renal = tested on: 786-0 renal
# RXF 393 renal = tested on: RXF 393 renal
# MDA-MB-231 breast = tested on: MDA-MB-231 breast
# NCI-H226 lung = tested on: NCI-H226 lung
# UACC-62 melanoma = tested on: UACC-62 melanoma
# HL-60(TB) leukemia = tested on: HL-60(TB) leukemia
# NCI/ADR-RES ovarian = tested on: NCI/ADR-RES ovarian
# NCI-H460 lung = tested on: NCI-H460 lung
# HS 578T breast = tested on: HS 578T breast
# KM12 colon = tested on: KM12 colon
SMILES,TGI (786-0 renal),TGI (RXF 393 renal),TGI (MDA-MB-231 breast),TGI (NCI-H226 lung),TGI (UACC-62 melanoma),TGI (HL-60(TB) leukemia),TGI (NCI/ADR-RES ovarian),TGI (NCI-H460 lung) [µM],TGI (HS 578T breast),TGI (KM12 colon),GI50 (NCI-H226 lung),GI50 (HL-60(TB) leukemia),GI50 (NCI-H460 lung),GI50 (KM12 colon)
CCCCCCCCCCCCCCCC(=O)N(CCCCCCCCCCC(=O)O)CC(O)C(O)C(OC1OC(CO)C(O)C(O)C1O)C(O)CO (stereo unspecified),> 100 µM,> 100 µM,> 100 µM,> 100 µM,34.7 µM,47.7 µM,61.1 µM,> 100,> 100 µM,34 µM,–,–,–,–
O=C(O)CC1NCc2cc3ccccc3nc21 (stereo unspecified),> 100 µM,> 100 µM,> 100 µM,> 100 µM,> 100 µM,> 100 µM,> 100 µM,> 100,> 100 µM,> 100 µM,–,–,–,–
FC(F)(F)c1cccc(-c2nc3ccccc3c3c2[C@@]2(N4CCCC4)CCCC[C@@H]32)c1,> 100 µM,> 100 µM,49.3 µM,> 100 µM,56.3 µM,71.6 µM,> 100 µM,> 100,> 100 µM,> 100 µM,–,–,–,–
CCCCCCCCCCCCOCCCOP(=O)([O-])OCC[N+](C)(C)C,37.4 µM,> 53.3 µM,40.1 µM,65.8 µM,> 83.9 µM,55.5 µM,> 100 µM,> 70,57.7 µM,9.77 µM,–,–,–,–
COc1cc2c(=O)cnoc2cc1O,> 100 µM,> 100 µM,> 100 µM,> 100 µM,> 100 µM,> 100 µM,> 100 µM,> 100,> 100 µM,> 100 µM,–,–,–,–
Oc1ccc(Cl)cc1CN1CCN(Cc2cc(Cl)ccc2O)C1,5.93 µM,4.14 µM,10.2 µM,4.66 µM,3.94 µM,7.41 µM,1.1 µM,4.96,8.99 µM,3.49 µM,–,–,–,–
O=C(CNc1ccccc1[N+](=O)[O-])Nn1c(-c2ccccc2)nc2ccccc2c1=O,34.5 µM,38.9 µM,29.1 µM,93 µM,23.4 µM,> 100 µM,64.3 µM,45.1,> 100 µM,> 10 µM,–,–,–,–
COc1cc2c(cc1OC)C1(COc3cc(O)c(O)c(O)c3C1=O)C2 (stereo unspecified),> 50 µM,> 50 µM,> 50 µM,> 50 µM,> 50 µM,> 50 µM,> 50 µM,> 50,> 50 µM,> 50 µM,–,–,–,–
COc1ccc(OC)c(NS(=O)(=O)c2ccc3nc(C)n(NS(=O)(=O)c4cc(OC)ccc4OC)c(=O)c3c2)c1,> 100 µM,> 100 µM,> 100 µM,> 100 µM,> 100 µM,> 100 µM,> 100 µM,> 100,> 100 µM,> 100 µM,–,–,–,–
CC(C)=CCC/C(C)=C/CC/C(C)=C/CC/C(=C/CC/C(C)=C\CC/C(C)=C/CC/C(C)=C/CC/C(C)=C/Cc1cc(O)ccc1O)CO,9.66 µM,2 µM,> 78.8 µM,6.54 µM,5.17 µM,9.5 µM,19.4 µM,33,8.44 µM,4.16 µM,–,–,–,–
CN(/N=C/c1ccnc2ccccc12)c1ccc(Cl)cc1[N+](=O)[O-],> 100 µM,> 100 µM,> 100 µM,> 100 µM,> 100 µM,> 100 µM,> 100 µM,> 100,52.2 µM,> 100 µM,–,–,–,–
CCOC(=O)c1sc2[n+](c1C)C(=O)/C(=C/c1ccc([N+](=O)[O-])cc1)S2,56.8 µM,81.5 µM,> 100 µM,58.4 µM,40.3 µM,> 100 µM,42.5 µM,45,67 µM,47.5 µM,–,–,–,–
CCOC(=O)C(Cc1cccn1C(=O)OC(C)(C)C)[N+](=O)[O-] (stereo unspecified),51.3 µM,34.4 µM,44.7 µM,67.3 µM,42.9 µM,48.1 µM,> 100 µM,53.4,75.9 µM,55.5 µM,–,–,–,–
Cc1cn([C@@H]2O[C@H](CO[Si](C)(C)C(C)(C)C)[C@]3(O[C@H]3C(=O)NN)[C@H]2O[Si](C)(C)C(C)(C)C)c(=O)[nH]c1=O,14.7 µM,> 25.2 µM,13.7 µM,27.6 µM,24 µM,6.09 µM,33 µM,15.6,6.93 µM,32.6 µM,–,–,–,–
CC1=NN(c2nc(N)nc(CC#N)n2)C(C)(C)C1,> 100 µM,> 100 µM,> 100 µM,> 100 µM,> 100 µM,> 100 µM,> 100 µM,> 100,> 100 µM,> 100 µM,–,–,–,–
C[N+]1(CCCl)CC[N+](C)(CCCl)CC1 (stereo unspecified),> 100 µM,> 100 µM,> 100 µM,> 100 µM,> 100 µM,> 100 µM,> 100 µM,> 100,> 100 µM,> 100 µM,–,–,–,–
C=C1C(=O)O[C@@H]2C[C@]3(C)CC[C@]4(C)[C@H](CC[C@@H]5[C@@]6(C)CCC(=O)C(C)(C)[C@@H]6CC[C@]54C)[C@H]3[C@H]12,30.2 µM,34.3 µM,47.1 µM,38.4 µM,32.9 µM,3.72 µM,66.7 µM,35,> 78 µM,42.8 µM,–,–,–,–

SMILES,TGI (786-0 renal),TGI (RXF 393 renal),TGI (MDA-MB-231 breast),TGI (NCI-H226 lung),TGI (UACC-62 melanoma),TGI (HL-60(TB) leukemia),TGI (NCI/ADR-RES ovarian),TGI (NCI-H460 lung) [µM],TGI (HS 578T breast),TGI (KM12 colon),GI50 (NCI-H226 lung),GI50 (HL-60(TB) leukemia),GI50 (NCI-H460 lung),GI50 (KM12 colon)
c1c[nH]c(C23C4C5C6C4C2C6C53)n1 (stereo unspecified),> 100 µM,> 100 µM,> 100 µM,> 100 µM,> 100 µM,> 100 µM,> 100 µM,> 100,> 100 µM,> 100 µM,–,–,–,–
Nc1nn2c(nc(N)c3c(N)[nH]nc32)c1N=Nc1ccc(Br)cc1,> 95.3 µM,> 100 µM,1.87 µM,> 100 µM,> 100 µM,77.9 µM,> 100 µM,> 100,> 100 µM,> 75.8 µM,–,–,–,–
CCCCON1C[C@H](OC(C)=O)C(OC(C)=O)[C@H](OC(C)=O)C1 (stereo partly specified),> 100 µM,> 100 µM,> 100 µM,> 100 µM,> 100 µM,> 100 µM,> 100 µM,> 100,> 100 µM,> 100 µM,–,–,–,–
CN(c1ccccc1Cl)S(=O)(=O)c1ccc([N+](=O)[O-])cc1,> 100 µM,> 100 µM,> 100 µM,> 100 µM,> 100 µM,> 100 µM,> 100 µM,> 100,> 100 µM,> 100 µM,–,–,–,–
CC1=C(C(=O)c2ccccc2)C23C(=O)N(c4ccccc4)C(=O)C2=C(O)C=CC3(O)N1 (stereo unspecified),> 100 µM,43 µM,> 100 µM,> 100 µM,48 µM,50.7 µM,> 100 µM,> 100,> 100 µM,53.5 µM,–,–,–,–
O=S(=O)(/N=C(\NO)Nc1ccc(Cl)cc1)c1cccc2nsnc12,80.7 µM,> 100 µM,> 100 µM,> 100 µM,53.1 µM,39.1 µM,> 100 µM,> 100,85.6 µM,> 100 µM,–,–,–,–
S=C(c1c[nH]c2ccccc12)N1CCN(Cc2ccccc2)CC1,29 µM,30.9 µM,32.9 µM,35.9 µM,33.7 µM,44 µM,36 µM,67.6,34.6 µM,33.8 µM,–,–,–,–
CC1=Nc2sc3c(c2C2=NCCN12)CCCC3,46 µM,61 µM,71.2 µM,31.2 µM,32 µM,61 µM,54.4 µM,39,91.1 µM,> 100 µM,–,–,–,–
N#Cc1c(-c2ccccc2)[nH]c(=O)n(C2OC(CO)C(O)C(O)C2O)c1=O (stereo unspecified),> 100 µM,> 100 µM,> 100 µM,> 100 µM,> 100 µM,> 100 µM,> 100 µM,> 100,> 100 µM,> 100 µM,> 100 µM and 45.4 µM,47.4 µM and > 100 µM,–,–
CCCCCCCCCCCCCCCCOC[C@@H](COC(c1ccccc1)(c1ccccc1)c1ccccc1)O[P+](=S)OC (stereo partly specified),19.1 µM,22.7 µM,5.49 µM,42.5 µM,14.5 µM,36 µM,59.8 µM,5.8,82.6 µM,19.2 µM,–,–,–,–
CC1OC(OC2C(OC(=O)[C@]34CCC(C)(C)C[C@H]3C3=CC[C@@H]5[C@@]6(C)CC[C@H](OC7OC(C(=O)O)C(O)C(OC8OCC(O)C(O)C8O)C7O)C(C)(C)[C@@H]6CC[C@@]5(C)[C@]3(C)CC4)OCC(O)C2O)C(O)C(OC2OCC(O)C(O)C2O)C1OC1OCC(O)C(OC2OCC(O)C(O)C2O)C1O (stereo partly specified),25.7 µM and 43 µM,37.5 µM and 42.9 µM,14.2 µM and 12.9 µM,24.6 µM and 39.7 µM,36.1 µM and 58.1 µM,6.18 µM and 29.5 µM,24.4 µM and 67.7 µM,> 100,37.9 µM and 62.4 µM,15.8 µM and 23.7 µM,9.29 µM and 19.1 µM,2.28 µM and 12.6 µM,49.5 µM and > 100 µM,4.39 µM and 11.3 µM
Cc1c2c(OCCN3CCCCC3)nn(C)c(=O)c2c(C)n1-c1ccccc1,36.7 µM,> 100 µM,> 100 µM,> 100 µM,> 100 µM,> 100 µM,> 100 µM,> 100,> 100 µM,> 100 µM,–,–,–,–
CC(=O)N=C1N(/C=C2\C(=O)Oc3ccccc3C2=O)C(=O)/C(=C/c2ccc(NC(C)=O)cc2)N1C,> 100 µM,> 100 µM,> 100 µM,> 100 µM,> 100 µM,> 100 µM,> 100 µM,> 100,> 100 µM,> 100 µM,–,–,–,–
NC1=CN2c3ccccc3N(CC(=O)O)C2C=C1 (stereo unspecified),> 100 µM,> 100 µM,> 100 µM,> 100 µM,> 100 µM,> 100 µM,> 100 µM,> 100,> 100 µM,> 100 µM,–,–,–,–
CC1C2(C)OC(=N)C(C#N)(C(c3cccc([N+](=O)[O-])c3)O2)C1(C#N)C#N (stereo unspecified),45.2 µM,43.9 µM,32 µM,> 100 µM,42.7 µM,39 µM,> 100 µM,29.7,> 100 µM,> 100 µM,–,–,–,–
C=C1C(=O)O[C@@H]2C=C(C)C3=CC(=O)[C@](C)(C[C@H](OC(=O)/C(C)=C\C)[C@@H]12)O3,1.54 µM,1.52 µM,2.24 µM,4.99 µM,2.06 µM,0.563 µM,3.64 µM,7.73,17.7 µM,2.99 µM,–,–,–,–
